Several values for one entry are separate records, joined by “and”; a condition that tells them apart may be missing. Identical values can stand only once.
Legend:
HIV [1] = experiment: microbe, parasite or virus in culture; format: cell-based; details: CEM cells, free HIV, read-out: Activity of Anti-HIV Compounds (EC50), CEMV
Procedure: (§1) The compounds of Examples were tested for anti-AIDS activity by subjecting them to standard National Cancer Institute ("NCI") in vitro screening procedures. In carrying out each test, two blanks were run. In the first blank, HIV and a culture of a standard human cell line were incubated together to measure the infectivity of the virus. The viability of the cells was measured after holding for six or seven days. In an "effective" test, most cells were infected before the holding period was complete.
In the second blank, the cell line culture and the compound being tested (but not virus) were incubated together to measure the toxicity of the drug to the cellline. The viability of the cells was measured as a function of concentration of the compound, after holding for seven days. Typically, the cells survive at low compound concentrations, but at some higher concentration, toxicity of the compound is manifested and the cells die. The concentration of the test compound that results in 50% inhibition of cell growth is defined as the IC50.
(§2) Finally, the protective effects of the test compounds were measured. Each cell culture and test compound were incubated with the virus and the viability of the cells was measured as a function of compound concentration after holding for six or seven days. If the compound is active in protecting the cells against the virus, there is typically low cell viability until an effective concentration of the test compound is reached. At this point, cell viability increases steadily toward 100% unless the toxic effect of the compound (as measured in the second blank) takes effect. The concentration of the test compound that results in 50% "control," i.e., a 50% reduction of the viral cytopathic effect, is defined as the EC 50. The therapeutic index TI50 is calculated as IC50/EC50.
(§3) Values of test compound concentrations required for between 20 and 50% reduction of the viral cytopathic effect can also be determined. Such compounds are classified as moderately active.
(§4) The compounds were tested to determine their reduction of HIV cytopathic effect on the human cell lines CEM and MT2. Tests were done by innoculating these cell lines either with free HIV (V) or with a virus Previously cultured with host cells (C). Thus, in Table III the designation CEMV means CEM line cells innoculated with free virus and MT2C means MT2 cells innoculated with cultured viral infected MT2 cells. In some cases the compound was also tested on a cell line together with a sub-effective amount of the known HIV viricide AZT. This is done to test possible synergistic effects. Such a test on the CEM line is denoted CEMZ.
(§5) 1) T4 lymphocytes (CEM cell line) are exposed to HIV at a virus to cell ratio of approximately 0.05 and plated along with non-infected control cells in 96-well microtiter plates.
(§6) 2) Each candidate agent is dissolved in dimethyl sulfoxide (unless otherwise indicated), then diluted 1:200 in cell culture medium. Further dilutions (five-fold) are prepared before adding to an equal volume of medium containing either infected or noninfected cells.
(§7) 3) Cultures are incubated at 37° C. in a 5% carbon dioxide atmosphere for seven days (if six days the CEMV test is identified as CEM-6).
(§8) 4) The tetrazolium salt, XTT, is added to all wells, and cultures are incubated to allow formazan color development by viable cells.
(§9) 5) Individual wells are analyzed spectrophotometrically to quantity formazan production, and in addition are viewed microscopically for detection of viable cells and confirmation of protective activity.
(§10) 6) Drug-treated virus-infected cells are compared with drug-treated non-infected cells and with other appropriate controls (untreated infected and untreated non-infected cells, drug-containing wells without cells, etc.) on the same plate.
7) A determination of activity is made. […]

HIV [2] = experiment: Reduction of HIV cytopathic effect, CEM-6 (CEMV test, six days); format: cell-based; details: CEM cells; for EC50: free HIV, read-out: Activity of Anti-HIV Compounds (EC50), CEM-6; for Activity class of Anti-HIV Compounds, CEM-6: inhibition of viral cytopathic effect, 8640 min
Procedure: as §1, §2, §3, §4, §5, §6, §7, §8, §9, §10

[3] = Human immunodeficiency virus 1, CCRF-CEM
[4] = Human immunodeficiency virus 1, CCRF-CEM, 144 h

Molecule | EC50 (HIV [2]) | Activity class of Anti-HIV Compounds, CEM-6 (HIV [2]) | further results
CCCCCOC(=O)c1cc(NC(=O)C2=C(C)OCCS2)ccc1Cl [Compound 15, Pentyl 2-chloro-5-[[(5,6-dihydro-2-methyl-1,4-oxathiin-3-yl)carbonyl]amino]benzoate] |  |  | EC50 (HIV [1]): 610 nM; EC50 (HIV [1]; [3]): 820 nM
CC(C)OC(=O)c1cc(NC(=O)c2c(Br)c(Br)c(Br)c(Br)c2C(=O)O)c(F)cc1Cl [Compound 20, 2,3,4,5-Tetrabromo-6-[[[4-chloro-2-fluoro-5-[(1-methylethoxy)carbonyl]phenyl]amino]carbonyl]benzoic acid] |  |  | EC50 (HIV [1]): 58700 nM and 69400 nM and 54500 nM; EC50 (HIV [1]; [3]): 69500 nM
CC(C)OC(=O)c1cc(NC(=O)c2c(Br)c(Br)c(Br)c(Br)c2C(=O)O)ccc1Cl [Compound 21, 2,3,4,5-Tetrabromo-6-[[[4-chloro-3-[(1-methylethoxy)carbonyl]phenyl]amino]carbonyl]benzoic acid] |  |  | EC50 (HIV [1]): 36200 nM; EC50 (HIV [1]; [3]): 58200 nM
CC1=C(C(=O)Nc2ccc(Cl)c(C(=O)OC(C)C)c2)SCCS1 [Compound 27, 1-Methylethyl 2-chloro-5[[(5,6-dihydro-3-methyl-1,4-dithiin-2-yl)carbonyl]amino]benzoate] |  |  | EC50 (HIV [1]): 810 nM; EC50 (HIV [1]; [3]): 1380 nM
CC(C)OC(=O)c1cc(NC(=O)C(C)(C)C)c(F)cc1Cl [Compound 30, 1-Methylethyl 2-chloro-5-[(2,2-dimethyl-1-oxopropyl)amino]-4-fluorobenzoate] |  |  | EC50 (HIV [1]; [3]): 42700 nM
CC(C)OC(=O)c1cc(NC(=S)OC(C)C)ccc1Cl [Compound 32, 1-Methylethyl 2-chloro-5-[[(1-methylethoxy)thioxomethyl]amino]benzoate] |  |  | EC50 (HIV [1]): 59 nM and 30 nM; EC50 (HIV [1]; [3]): 35 nM
CC(C)OC(=O)c1cc(NC(=S)OC2CCCCC2)ccc1Cl [Compound 44] | 1340 nM |  | EC50 (HIV [2]; [4]): 760 nM
CC(C)OC(=O)c1cc(NC(=S)OCC2CC2)ccc1Cl [Compound 46] | 53 nM |  | 
CC(C)OC(=O)c1cc(NC(=S)N(C)C)ccc1Cl [Compound 48] |  | MA (moderate activity (MA), that is, inhibition between approximately 20 and 50%) | 
CC(C)NC(=S)Nc1ccc(Cl)c(C(=O)OC(C)C)c1 [Compound 49] |  | MA (moderate activity (MA), that is, inhibition between approximately 20 and 50%) | 
COCCOC(=O)c1cc(NC(=O)C2=C(C)OCCS2)ccc1Cl [Compound 69] |  |  | EC50 (HIV [2]; [4]): 340 nM
CCCC1=C(C(=O)Nc2ccc(Cl)c(C(=O)OCC)c2)SCCO1 [Compound 70, Ethyl 2-chloro-5-[[(5,6-dihydro-2-propyl-1,4-oxathiin-3-yl)carbonyl]amino]benzoate] | 210 nM and 230 nM |  | EC50 (HIV [2]; [4]): 170 nM
CCCC1=C(C(=O)Nc2ccc(Cl)c(C(=O)OC)c2)SCCO1 [Compound 71, Methyl 2-chloro-5-[[(5,6-dihydro-2-propyl-1,4-oxathiin-3-yl)-carbonyl]amino]benzoate] | 1830 nM and 1620 nM |  | EC50 (HIV [2]; [4]): 990 nM
CC1=C(C(=O)Nc2ccc(F)c(C(=O)OC(C)C)c2)SCCO1 [Compound 72] | 590 nM and 340 nM |  | EC50 (HIV [2]; [4]): 540 nM
CC1=C(C(=O)Nc2ccc(C)c(C(=O)OC(C)C)c2)SCCO1 [Compound 73] | 580 nM |  | EC50 (HIV [2]; [4]): 410 nM
CCC1=C(C(=O)Nc2ccc(Cl)c(C(=O)OCC(C)C)c2)SCCO1 [Compound 74, 2-Methylpropyl 2-chloro-5-[[(2-ethyl-5,6-dihydro-1,4-oxathiin-3-yl)carbonyl]amino]benzoate] |  |  | EC50 (HIV [2]; [4]): 38900 nM
CCCOC(=O)c1ccc(C)c(NC(=O)C2=C(C)OCCS2)c1 [Compound 75, Propyl 3-[[(5,6-dihydro-2-methyl-1,4-oxathiin-3-yl)carbonyl]amino]-4-methylbenzoate] | 908 nM |  | EC50 (HIV [2]; [4]): 1060 nM
CCCCOC(=O)c1cccc(NC(=O)C2=C(C)OCCS2)c1 [Compound 76] |  | MA (moderate activity (MA), that is, inhibition between approximately 20 and 50%) | 

Molecule | EC50 (HIV [2]) | Activity class of Anti-HIV Compounds, CEM-6 (HIV [2]) | further results
Cc1occc1C(=O)Nc1ccc(Cl)c(C(=O)OC(C)C)c1 [Compound 79, 1-Methylethyl 2-chloro-5-[[(2-methyl-3-furanyl)carbonyl]amino]benzoate] | 3300 nM |  | 
Cc1coc(C)c1C(=O)Nc1ccc(Cl)c(C(=O)OC(C)C)c1 [Compound 80, 1-Methylethyl 2-chloro-5-[[(2,4-dimethyl-3-furanyl)carbonyl]amino]benzoate] | 2300 nM |  | 
Cc1cc(C(=O)Nc2ccc(Cl)c(C(=O)OC(C)C)c2)c(C)o1 [Compound 81, 1-Methylethyl 2-chloro-5-[[(2,5-dimethyl-3-furanyl)carbonyl]amino]benzoate] |  |  | EC50 (HIV [2]; [4]): 420 nM
COCCOC(=O)c1cc(NC(=O)c2ccccc2)ccc1Cl [Compound 84, 2-Methoxyethyl 5-[benzoylamino)-2-chlorobenzoate] |  | MA (moderate activity (MA), that is, inhibition between approximately 20 and 50%) | 
CCOC(=O)c1cc(NC(=O)c2ccccc2OC)ccc1Cl [Compound 86, Ethyl 2-chloro-5-[(2-methoxybenzoyl)amino]benzoate] | 1360 nM |  | EC50 (HIV [2]; [4]): 1740 nM
CCOC(=O)c1cc(NC(=O)c2ccccc2)ccc1Cl [Compound 87, Ethyl 5-(benzoylamino)-2-chlorobenzoate] |  | MA (moderate activity (MA), that is, inhibition between approximately 20 and 50%) | 
CC(C)OC(=O)c1cc(NC(=O)c2ccccc2Cl)ccc1Cl [Compound 90, 1-Methylethyl 2-chloro-5-[(2-chlorobenzoyl)amino]benzoate] |  | MA (moderate activity (MA), that is, inhibition between approximately 20 and 50%) | 
CC(C)=CC(=O)Nc1ccc(Cl)c(C(=O)OC(C)C)c1 [Compound 91, 1-Methylethyl 2-chloro-5-[(3-methyl-1-oxo-2-butenyl)amino]-benzoate] |  | MA (moderate activity (MA), that is, inhibition between approximately 20 and 50%) | 
C#CCOC(=O)Nc1ccc(Cl)c(C(=O)OC(C)C)c1 [Compound 92, 1-Methylethyl 2-chloro-5-[((2-propynyloxy)carbonyl]amino]benzoate] |  | MA (moderate activity (MA), that is, inhibition between approximately 20 and 50%) | 
Cc1nc(C(=O)Nc2ccc(Cl)c(C(=O)OC(C)C)c2)c(-c2ccccc2)o1 [Compound 103] |  | MA (moderate activity (MA), that is, inhibition between approximately 20 and 50%) | 
CC(C)OC(=O)c1cc(NC(=O)c2cc3ccccc3[nH]2)ccc1Cl [Compound 104] |  | MA (moderate activity (MA), that is, inhibition between approximately 20 and 50%) | 
Cc1nc(-c2ccccc2)c(C(=O)Nc2ccc(Cl)c(C(=O)OC(C)C)c2)o1 [Compound 105] |  | MA (moderate activity (MA), that is, inhibition between approximately 20 and 50%) | 
Cc1ccsc1C(=O)Nc1ccc(Cl)c(C(=O)OC(C)C)c1 [Compound 106] | 2200 nM |  | 
CC(C)OC(=O)c1cc(NC(=O)C2=CCCCC2)ccc1Cl [Compound 107] |  | MA (moderate activity (MA), that is, inhibition between approximately 20 and 50%) | 
Cc1cc(C)c(C(=O)Nc2ccc(Cl)c(C(=O)OC(C)C)c2)s1 [Compound 108] |  | MA (moderate activity (MA), that is, inhibition between approximately 20 and 50%) | 
CC(C)OC(=O)c1cc(NC(=O)c2ccsc2)ccc1Cl [Compound 109] |  | MA (moderate activity (MA), that is, inhibition between approximately 20 and 50%) | 
Ethyl 5-[(2-aminobenzoyl)amino]-2-chlorobenzoate [Compound 88] | 5700 nM and 3100 nM |  | 
